Laboratory results published in paper doi:10.1101/2021.12.13.472350v1, “An amphipathic and cationic antimicrobial peptide kills colistin resistant Gram-negative pathogens in vivo” (bioRxiv, 2021).
Converted amounts (≈) assume the structure as drawn.

Tests used:
E. coli ATCC 25922 [1] = assay: MIC in the presence of 50% human serum; format: cell-based; conditions: 50% heat inactivated human male AB serum and 50% MHB-II; crude measure of protein binding/interference; triplicate
Experimental: The minimum inhibitory concentration (MIC) was determined as previously described ([68]), with minor modifications. Briefly, exponentially growing cultures in MHB-II (37°C) were diluted to an OD600 = 0.002, approximately 1×10^6 colony forming units (CFU) per ml. 100 µl of bacterial suspension was added to polypropylene microtiter plates containing 100 µl of Colistin or ChIP dilutions. Giving a final bacterial inoculum of ∼ 5×10^5 CFU/ml. Colistin sulfate salt (Sigma-Aldrich) and ChIP (Genscript >95% purity) was dissolved in H2O. ChIP MIC in serum was determined in the presence of 50% (heat inactivated) human serum (Sigma) and 50% MHB-II. All experiments were performed in triplicate.

E. coli ATCC 25922 [2] = assay: Time kill experiments; format: cell-based; conditions: 1xMIC, exponentially growing cells, 5×10^5-1×10^6 CFU/ml, MHB-II; plateau, regrowth evident after 3 hours
[3] = tested on: Klebsiella pneumoniae ATCC 700603; conditions: ATCC 700603, SHV-18, mucoid; MHB-II, 37°C, ~5×10^5 CFU/ml, triplicate
[4] = tested on: E. coli ML-35p inner membrane; assay: Permeabilization assay (ONPG / β-galactosidase); format: cell-based; conditions: ChIP 4, 12 and 20 µg/ml for 20, 40 or 60 minutes; chloramphenicol 200 µg/ml pretreated; level higher than toluene or colistin 2 µg/ml
Experimental: Exponentially growing cells of E. coli ML35 (LacI^- LacY^- LacZ^+) were treated with chloramphenicol (200 µg/ml) to stop protein synthesis. Chloramphenicol treated samples were incubated with ChIP (4, 12 and 20 µg/ml) and colistin (2 µg/ml) for 20, 40 or 60 minutes (12 samples total). 200 µL peptide treated cells were added to 1 ml Z-buffer (0.06M Na2HPO4, 0.04M NaH2PO4, 0.01M KCL, 0.001M MgSO4 and pH = 7) containing 1 mg/ml Ortho-Nitrophenyl-β-galactoside (ONPG). Samples were left at room temperature 15 minutes before stopping color development by addition of 0.5 ml Na2CO3 (1M). Toluene treated cells were included as a control for permeabilized cells. β-galactosidase activity was detected by OD420 measurements.

[5] = cited from earlier work
E. coli ATCC25922 = assay: Live/Dead staining and phase contrast microscopy; format: cell-based; conditions: 5xMIC, first 30 min of treatment, OD600 = 0.1
Experimental: Exponentially growing E. coli ATCC25922 were treated for 30 min with either colistin (5xMIC) or ChIP (5xMIC) at OD600 = 0.1. An untreated culture was used as a control. 20 ml of treated or untreated culture was concentrated by centrifugation at 5,000 × g for 10 minutes, washed and re-suspended in 10 ml 0.9% NaCl. All samples were incubated at room temperature for 1 hour, mixing every 15 minutes, before washing twice with 10 ml 0.9% NaCl. After washing, the samples were re-suspended in 5 ml 0.9% NaCl, except for ChIP treated samples that were suspended in 1 ml 0.9% NaCl. Sample staining was performed according to the manufacturers instruction (LIVE/DEAD(tm) BacLight(tm) Bacterial Viability Kit, for microscopy & quantitative assays), and incubated for 15 minutes in the dark. 5 μl of the bacterial suspension was placed on an agar pad and analyzed by fluorescence microscopy using an AxioImager Z1 microscope (Carl Zeiss MicroImaging, Inc), with a × 100 objective and a Hamamatsu ORCA-ER C4742-80-12AG camera.

[6] = tested on: Acinetobacter baumannii ATCC 19606; conditions: ATCC 19606, reference strain; MHB-II, 37°C, ~5×10^5 CFU/ml, triplicate
[7] = tested on: Klebsiella pneumoniae ATCC 13883; conditions: ATCC 13883, reference strain; MHB-II, 37°C, ~5×10^5 CFU/ml, triplicate
E. coli ATCC 25922 [8] = assay: In vivo sepsis/peritonitis mouse infection model; conditions: NMRI mice infected IP
A. baumannii ATCC 19606 = assay: In vivo sepsis/peritonitis mouse infection model; conditions: NMRI mice infected IP, 10 mg/kg IP at 1 and 3 h
[9] = 5 mg/kg IP at 1 and 3 h post infection
[10] = 10 mg/kg IP at 1 and 3 h post infection

For `CC[C@@H](C)[C@@H](NC(=O)[C@@H](CCCCN)NC(=O)[C@@H](CCCCN)NC(=O)[C@@H](Cc1ccccc1)NC(=O)[C@@H](CC(C)C)NC(=O)[C@@H](CCCCN)NC(=O)[C@H](N)CCCCN)C(=O)N[C@H](CC(C)C)C(=O)N[C@H](CCCNC(=N)N)C(=O)N[C@H](Cc1ccc(O)cc1)C(=O)N[C@H](CC(C)C)C(N)=O` [ChIP], the “MIC in MHB-II + Human serum (50:50) versus MHB-II” value (E. coli ATCC 25922 [1]) was “did not change the MIC”, the “reduction in viable cells” value (E. coli ATCC 25922 [2]) was 3-4 log and the MIC [3] was 8 µg/mL (≈ 5.52 µM). For the same compound, the “β-galactosidase activity (ONPG, OD420) of treated cells” value [4] was “increased in a dose dependent manner”, the hemolytic activity [5] was “low hemolytic activity” and the “viability and lysis (SYTO9 / propidium iodide, phase contrast)” value (E. coli ATCC25922) was “loss of viability, but without lysis”. The MIC [6] was 8 µg/mL (≈ 5.52 µM), the MIC [7] was 4 µg/mL (≈ 2.76 µM) and the “peritoneal bacterial titers after treatment” value (E. coli ATCC 25922 [8]; [9]) was 1-5×10^5 CFU/ml. The “reduction of peritoneal bacterial titers” value (E. coli ATCC 25922 [8]; [9]) was 2 logs, the “peritoneal CFUs after treatment” value (E. coli ATCC 25922 [8]; [10]) was 1×10^3 CFU/ml and the “reduction of peritoneal CFUs” value (E. coli ATCC 25922 [8]; [10]) was 4 logs. For the same compound, the “reduction of peritoneal bacterial titers relative to saline control” value (A. baumannii ATCC 19606; after 5 hours) was 3-4 log, the peritoneal bacterial titers (A. baumannii ATCC 19606; after 5 hours, saline control around 1×10^8 CFU/ml) was 1×10^3-1×10^4 CFU/ml and the bacterial blood titers (A. baumannii ATCC 19606; detection limit 50 CFU/ml) was “reduce CFU/ml to the detection limit”.
